Assay results from patent US20150126519A1, “ANTIBIOTIC COMPOUNDS AND COMPOSITIONS, AND METHODS FOR IDENTIFICATION THEREOF” (Fred Hutchinson Cancer Research Center, priority 2012, published 2015).
pIC50: −log10 of the molar value. Where two headings read alike, the source gives them in different places.

Columns and labels:
[1] = test system: phage λ recombination dependent on RecBCD; experiment: Phage λ recombination in strain V66; assay type: cell-based, E. coli
[2] = test system: E. coli Hfr recombination; experiment: E. coli Hfr recombination (RecBCD pathway, strain V66 x V1306); conditions: for activity at 200 µM: Escherichia coli, read-out: Relative recombinant frequency, E. coli Hfr recombination at 200 μM compound, 200 μM
Protocol: E. coli Hfr recombination, phage λ recombination, and Chi hotspot activity assays were conducted as described by Schultz, D. W.; Taylor, A. F.; Smith, G. R., J. Bacteriol.

E. coli gyrase = E. coli gyrase (Escherichia coli, UniProt P0AES4+P0AES6); experiment: Gyrase-catalysed supercoiling; assay type: biochemical
Chain of E. coli gyrase (P0AES4 whole entry, one chain of several): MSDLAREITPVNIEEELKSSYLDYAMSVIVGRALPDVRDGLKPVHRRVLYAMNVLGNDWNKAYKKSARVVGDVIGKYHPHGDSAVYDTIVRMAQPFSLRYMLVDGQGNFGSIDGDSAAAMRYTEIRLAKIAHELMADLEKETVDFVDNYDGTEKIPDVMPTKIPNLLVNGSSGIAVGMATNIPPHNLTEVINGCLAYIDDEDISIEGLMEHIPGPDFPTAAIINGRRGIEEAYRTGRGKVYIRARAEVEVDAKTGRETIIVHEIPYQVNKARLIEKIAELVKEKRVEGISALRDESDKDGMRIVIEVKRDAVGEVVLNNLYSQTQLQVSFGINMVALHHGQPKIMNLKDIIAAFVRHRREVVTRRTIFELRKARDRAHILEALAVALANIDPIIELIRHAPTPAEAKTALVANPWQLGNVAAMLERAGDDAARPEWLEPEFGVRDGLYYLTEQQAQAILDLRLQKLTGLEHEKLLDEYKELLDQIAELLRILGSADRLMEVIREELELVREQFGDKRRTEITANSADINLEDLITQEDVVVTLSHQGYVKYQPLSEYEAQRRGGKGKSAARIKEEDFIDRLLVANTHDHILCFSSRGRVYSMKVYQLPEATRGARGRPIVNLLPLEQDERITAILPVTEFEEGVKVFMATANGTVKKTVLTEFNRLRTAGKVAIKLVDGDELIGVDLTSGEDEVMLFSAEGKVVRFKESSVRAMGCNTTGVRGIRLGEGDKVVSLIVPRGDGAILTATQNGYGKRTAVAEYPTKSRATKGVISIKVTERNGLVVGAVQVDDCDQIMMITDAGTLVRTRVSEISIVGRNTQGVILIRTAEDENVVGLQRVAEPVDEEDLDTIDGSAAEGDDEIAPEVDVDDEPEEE
Protocol: Several compounds as described herein were evaluated for their ability to inhibit bacterial DNA gyrase.

Question: Which “Relative recombinant frequency, Phage λ recombination at 200 μM compound” value ([1]; experiment 1 (first value), without compound 11.2% J+ R+) does the source give for `CCn1cc(C(=O)O)c(=O)c2cnc(N3CCN(C(=S)Nc4cccc(C(F)(F)F)c4)CC3)nc21` [Compound 3] here?
Answer: 18%

Question: What about the “Relative recombinant frequency, Phage λ recombination at 200 μM compound” value ([1]; experiment 2 (second value), without compound 3.4% J+ R+) of the same molecule?
Answer: 23%

Question: What about the pIC50 ([1]; Escherichia coli, read-out: IC50 for inhibition of phage λ recombination) of the same molecule?
Answer: ~5.30

Question: What about the “Fold-reduction in recombinant frequency, RecBCD pathway” value ([2]; 100 μM compound, genotype recBCD+ (V66), mean n=3) of the same molecule?
Answer: 9 fold

Question: What about the activity at 200 µM ([2]; experiment 1 (first value), percentage of that without compound (8.7% His+ StrR per viable Hfr cell)) of the same molecule?
Answer: 20%

Question: What about the activity at 200 µM ([2]; experiment 2 (second value), percentage of that without compound (8.9%)) of the same molecule?
Answer: 10%

Question: And the “gyrase inhibition (in words)” value (E. coli gyrase)?
Answer: weak gyrase inhibitor
